# Results reported in patent US20230045151A1, “COMPOSITIONS AND METHODS” (MONASH UNIVERSITY, priority 2020, published 2023).
# Where a name gives a salt, the structure may show the parent alone.
# What was measured:
# CCL20 = test: In vitro stimulation of lung cells enriched for airway epithelial cells, chemokine release; type: cell-based, mouse; conditions: 24 hours; for CCL20 production by lung cells stimulated with LPS: EGF 100 ng/ml, amphiregulin 500 ng/ml or gefitinib 0.16 μM, lower efficacy than PCS
# Procedure: Mice were euthanized by CO2 inhalation, instilled with a 1.5 ml dispase II (Sigma-Aldrich) intratracheally, followed by intratracheal injection of 0.5 ml 1% low melting point agarose (Sigma-Aldrich). Lungs were then covered with ice for 3 min, removed and placed in a 15 ml falcon tube with 2 ml of dispase II, and incubated for 45 min with gentle agitation. This was followed by mechanical disruption of the lung lobes using forceps in DMEM supplemented with DNAse I (Sigma-Aldrich, 1U/ml), filtration through 70- and 40-μM cell strainers (Falcon®, Corning) and lysis of erythrocytes using red blood cell lysing buffer (BD Biosciences). Lung cells were plated in a flat-bottom 24-well or 96-well plates (Costar) coated with fibronectin (Sigma-Aldrich, 10 μg/ml) at the density of 1 mln or 0.2 mln cells/well, respectively.
# 5% CO2, after which the supernatant was collected and stored at −20° C. until further use.
# [1] = test system: C57BL6/J mice exposed intranasally to house dust mite extract (HDM); test: HDM animal model of allergic airway inflammation; type: in vivo, mouse
# Procedure: Mice received water as a control or L-tyrosine (reagent grade, ≥98% Sigma-Aldrich, St. Louis, Mo.) resuspended in drinking water under sterile conditions at the concentration of 100 mg/kg/day or 500 mg/kg/day (based on the assumption of a mouse consuming 4 ml of water daily). All mice received the treatment 2 weeks prior and throughout the experiment. […] Control mice received 200 μl of saline. […]. For experiments employing antibiotic treatment, 3-week old mice were treated with a combination enrofloxacin (10 mg/kg/day) and amoxicillin with clavulanic acid (1 mg/kg/day) for one week, followed by one week of only amoxicillin with clavulanic acid (1 mg/kg/day). Then, mice were then put on L-tyrosine diet in drinking water for two weeks followed by HDM exposure as before. During this time, mice were maintained on antibiotic treatment with amoxicillin/clavulanic acid until end of experiment.
# Mice were anaesthetised by the inhalation of 4% isoflurane in oxygen for 3-5 minutes. 20 μg of protein content of crude house dust mite extract (HDM) (Greer Laboratories Inc., Lenoir, N.C.) in 20 μl of sterile phosphate-buffered saline (PBS) (Gibco™) was applied intranasally on days 0, 11, 12 and 13. Mice were humanely sacrificed with the lethal dose of pentobarbital (Streuli Pharma AG, Uznach, Switzerland) on day 14.
# Bronchoalveolar lavage fluid (BALF) was collected by flushing airways with 0.5 ml PBS supplemented with 0.2% bovine serum albumin (Sigma-Aldrich, St. Louis, Mo.). Total cell number was determined with Coulter Counter (IG Instrumenten-Gesellschaft AG, Basel, Switzerland) while differential cell staining performed on cytospins stained with Diff-Quik solution (Dade Behring, Siemens Healthcare Diagnostics, Deerfield, Ill.). Percentages of neutrophils, macrophages, lymphocytes and eosinophils were assessed by counting 200 cells per sample.
# Concentrations of interleukin-4, -5, -13, -17 and IFN-γ in culture supernatants were analysed with mouse Ready-Set-Go!™ ELISA kits (eBioscience™, San Diego, Calif.) according to manufacturer's instructions. To measure the levels of HDM-specific IgG1 and IgE in plasma, half area 96-well plates (Corning) were coated with HDM (10 μg in PBS) overnight at 4° C., followed by the incubation of samples for 2 hours at RT, and the addition of alkaline-phophatase-conjugated goat anti-mouse IgE or IgG1 (both from SouthernBiotech, Birmingham, Ala.; diluted at 1 μg ml-1 in PBS 0.2% BSA) for 2 hours at RT. 4-nitrophenyl phosphate sodium salt hexahydrate (pNPP) (Sigma) was used as a substrate, and the colorimetric reaction was read at 405 nm on the Synergy H1 microplate reader (Biotek, Luzern, Switzerland). To measure the levels of total IgA and IgM as well as hen egg lysozyme (HEL)-specific IgA and IgM in mouse faeces, faecal pellets were homogenized in 0.8 ml cold PBS, centrifuged at 400 g for 5 minutes to remove large debris, filtered through 40 μm cell strainer and centrifuged at 8000 g for 10 minutes to pellet bacteria. The supernatant was collected and loaded for 2 hours at RT on 96-well half area plates coated a day before at 4° C. with anti-IgA (Southern Biotech; 2 μg ml-1), anti-IgM (SouthernBiotech; 2 μg ml-1) or HEL protein (Sigma-Aldrich; 10 μg/ml). This step was followed by the addition of alkalinephophatase-conjugated goat anti-mouse IgA or IgM (both at 1 μg ml-1 in PBS 0.2% BSA) for 2 hours at RT. 4-nitrophenyl phosphate sodium salt hexahydrate (pNPP) (Sigma) was used as a substrate, and the colorimetric reaction was read at 405 nm as before.
# Mediastinal lymph nodes were filtered through a 40 μm cell strainer, washed with PBS supplemented with 1% fetal bovine serum and 2 mM EDTA (Invitrogen) (MACS buffer). Lungs were finely cut with scissors, digested with Collagenase IV (Gibco™) in Iscove's modified Dulbecco's medium (IMDM, Gibco™) for 50 min at 37° C. and processed as the lymph nodes.
# [2] = test system: mice exposed intranasally to ovalbumin/LPS; test: OVA/LPS animal model of pulmonary type 1 inflammation; type: in vivo, mouse; conditions: PCS intravenous on day -1 and day 11
# Procedure: Results are from one experiment (n=4 per group, p=0.0335). All data are presented as mean values+/−SEM. *p≤0.05. Statistical significance was evaluated with Mann-Whitney test.
# Mice were anaesthetized by the inhalation of 4% isoflurane in oxygen for 3-5 min. 100 μg Ovalbumin (Invivogen, cat nr vac-pova) was mixed with 10 μg LPS from E. coli (Sigma-Aldrich, cat nr L4391) and administered intranasally per mouse on days 0, 11, 12 and 13. Mice were sacrificed with the lethal dose of pentobarbital on day 14.
# [3] = mouse, in vivo
# Procedure: Concentrations of cystatin, clusterin, lipocalin-2 and osteopontin in serum of vehicle or PCStreated mice were determined with MILLIPLEX MAP Mouse Kidney Injury Magnetic Bead Panel 2—Toxicity Multiplex Assay (Merck) according to manufacturer's instructions.
# [4] = test system: epithelial cells, dendritic cells, macrophages and bone marrow precursors; test: Effect of PCS on cells (deleteriousness); type: cell-based
# [5] = mice with normal renal function, cited from earlier work
# [6] = PCS intravenous 40 mg/kg, lymph node cells restimulated with HDM for 4 days
# [7] = lung cells from naive mice, HDM 100 μg/ml, PCS 100 μg/ml
Compound,CCL20 production by lung cells stimulated with LPS (CCL20; LPS 10 μg/ml),FoxP3+ Tregs in the lungs ([1]; PCS intravenous 40 mg/kg),numbers of lung CD4+ T cells ([1]; PCS intravenous 40 mg/kg),recruitment of neutrophils ([1]; PCS intravenous 40 mg/kg),"infiltration of DCs into the lungs ([1]; PCS intravenous 40 mg/kg, vs saline)","production of IL-5 by restimulated mediastinal lymph nodes [1, 6]","production of IL-13 by restimulated mediastinal lymph nodes [1, 6]","eosinophilia in the BALF ([1]; PCS intravenous (retro-orbital) 40 mg/kg on day -1 and day 11, vs saline, HDM days 0, 11, 12, 13)",HDM-induced production of CCL20 (CCL20; [7]),HDM-induced secretion of other chemokines (CCL20; [7]),"LPS-induced CCL20 (CCL20; lung cells from naive mice, LPS 10 μg/ml, PCS 100 μg/ml)",infiltration of CD4+ T cells to the airways ([2]; ovalbumin/LPS),infiltration of CD8+ T cells to the airways ([2]; ovalbumin/LPS),"infiltration of neutrophils to the airways ([2]; ovalbumin/LPS intranasal days 0, 11, 12, 13)",elevation of major kidney toxicity markers [3],"deleterious effect on epithelial cells, dendritic cells, macrophages and bone marrow precursors [4]",time to clearance from the blood ([5]; intraperitoneal or oral PCS),accumulation on chronic administration ([5]; twice a day for 4 weeks)
"COc1cc2ncnc(Nc3ccc(F)c(Cl)c3)c2cc1OCCCN1CCOCC1 [gefitinib, reference compound]",selective reduction,,,,,,,,,,,,,,,,,
"EGF: high affinity EGFR ligand, Epidermal Growth Factor",selective reduction,,,,,,,,,,,,,,,,,
"Cc1ccc(OS(=O)(=O)O)cc1 [PCS, p-cresol sulfate]",,no major alterations,no major alterations,reduced,decreased,reduced,reduced,ameliorated,completely abrogated,did not have an effect,inhibited,inhibited,inhibited,inhibited,not detected,not deleterious,≤ 4 h,does not lead to its accumulation
